According to US7906551B2 (Rottapharm S.p.A., priority 2006, dated 2011):
Where two headings read alike, the source gives them in different places.

Legend:
[1] = system: rat model of hyperalgesia induced by carragenine; experiment: Paw pressure test, hyperalgesia induced by carragenine; assay type: in vivo
Experimental: (§1) Male Swiss albino mice (23-25 g) and Sprague Dawley or Wistar rats (150-200 g) were used. The animals were fed a standard laboratory diet and tap water ad libitum and kept at 23±1° C. with a 12 h light/dark cycle, light on at 7 a.m.
The nociceptive threshold in the rat was determined with an analgesimeter, according to the method described by Leighton et al, G. E.; Br. J. Pharmacol. 1988, 93, 553-560. Threshold pressure was measured before and 30, 60 and 120 min after treatment. An arbitrary cut-off value of 250 g was adopted. In order to induce an inflammatory process in the rat paw carrageenan (0.1 ml, 1%) was administered i.p. 4 h before test.

[2] = system: rat model of edema induced by carragenine; experiment: Carrageenan-induced paw edema; assay type: in vivo; details: 1 h, 60 min, read-out: Edema inhibition 60 min, MPE
Experimental: as §1
Rats paw volumes were measured using a plethysmometer. Rats received the investigated compounds 4 hours after a 0.1-ml injection of 1.0% carrageenan in the right hind paw. Five hours after the injection of carrageenan (i.e. 1 hour after the administration of the investigated compound), the paw volume of the right hind paw was measured and compared with saline/carrageenan-treated controls. Results are reported as maximum percent effect (MPE), see below for detailed explanation.

[3] = system: rat model of hyperalgesia induced by Zymosan; experiment: Zymosan-induced hyperalgesia (Randal-Selitto); assay type: in vivo; details: oral, 3 mg/Kg
Experimental: as §1
(§2) The interplantar injection of Zymosan-induced mechanical hyperalgesia may be used as a model of inflammatory pain (Meller, Neuropharmacology, 1994, 33, 1471-1478). In this model, typically a male Sprague-Dawely or Wistar rat (200-250 g) receives an interplantar injection of 4 mg/100 μl zymosan into one hind paw. A marked inflammation occurs in this hind paw. Drugs are administered orally for evaluation of efficacy, 30 min. before the inflammatory insult. The hyperalgesia induced by zymosan administration was evaluated using the Randal-Selitto method (Arch. Int. Pharmacodyn., 1957, 111, 409). The quantitation of the analgesic effect is achieved by an analgesimeter, which consist in applying to the inflamed paw an increasing weight (from 130-140 g up to 500 g). The difference in the mechanical pain threshold between the basal value (generally 230-250 g) and the one tolerated by the animals treated with the drug, determined 4 hours after the inflammatory challenge, is defined as mechanical hyperalgesia.
Mechanical hyperalgesia is expressed for the compounds of the invention as maximum percent effect (MPE) which represents the difference (%) in pain threshold between the animals treated with the drug and the controls that received only the vehicle.
Results are reported as MPE (reduction of the nociceptive effect, due to paw loading with increasing weight, in comparison to controls). 100% MPE means that the animal treated with the compound and Zymosan can tolerate the same stimulus (weight) as the control animals which have not received Zymosan treatment. MPE higher than 100% mean that the animal treated with the compound and Zymosan can tolerate stimuli (weight) higher than the control animals, which has not received Zymosan treatment (hypoalgesia).

[4] = system: rat model of edema induced by Zymosan; experiment: Zymosan-induced paw edema; assay type: in vivo; details: oral, 3 mg/Kg
Experimental: as §1, §2
In vivo anti-inflammatory effect exerted by the compounds of the invention can be assessed in the same Zymosan induced inflammation test described above, by measuring the volume of the oedema induced by the inflammatory agent. The oedema was evaluated as the increase in the volume of the Zymosan injected paw within a time of 0-2 hrs. The measurements of the variation of the oedema volume of the paw were recorded using hydroplethysmometer. Results are expressed as MPE, maximum percent effect, that in this case represents the reduction (%) in the oedema of treated animals in comparison to controls (animals treated with Zymosan, which received only the vehicle).

[5] = study whether Celecoxib could treat AD; cited from earlier work
low-density lipoprotein = details: cited from earlier work
[6] = system: mouse abdominal constriction (writhing); experiment: Mouse abdominal constriction test (acetic acid 0.6%), writhing test; assay type: in vivo; details: mice, 30 min before test, control 38.1 ± 2.6
Experimental: as §1
Mice were injected i.p. with a 0.6% solution of acetic acid (10 ml/kg), according to Koster et al. Fed. Proc., 1959, 18, 412. The number of stretching movements was counted for 10 min, starting 5 min after acetic acid injection.

COX-2 = molecular target: T1, COX-2 (Mus musculus, UniProt Q05769); experiment: Assessment of COX-2 activity in LPS-stimulated J774 cells (PGE2 radioimmunoassay); assay type: cell-based, murine; details: Table 2, Formula Ia
T1 construct: lipopolysaccharide (LPS, 10 μg/mL) to induce COX-2; endogenous in cells; host or cells: J774 murine monocyte/macrophage cell line, LPS-stimulated
T1 sequence (Q05769 18-604): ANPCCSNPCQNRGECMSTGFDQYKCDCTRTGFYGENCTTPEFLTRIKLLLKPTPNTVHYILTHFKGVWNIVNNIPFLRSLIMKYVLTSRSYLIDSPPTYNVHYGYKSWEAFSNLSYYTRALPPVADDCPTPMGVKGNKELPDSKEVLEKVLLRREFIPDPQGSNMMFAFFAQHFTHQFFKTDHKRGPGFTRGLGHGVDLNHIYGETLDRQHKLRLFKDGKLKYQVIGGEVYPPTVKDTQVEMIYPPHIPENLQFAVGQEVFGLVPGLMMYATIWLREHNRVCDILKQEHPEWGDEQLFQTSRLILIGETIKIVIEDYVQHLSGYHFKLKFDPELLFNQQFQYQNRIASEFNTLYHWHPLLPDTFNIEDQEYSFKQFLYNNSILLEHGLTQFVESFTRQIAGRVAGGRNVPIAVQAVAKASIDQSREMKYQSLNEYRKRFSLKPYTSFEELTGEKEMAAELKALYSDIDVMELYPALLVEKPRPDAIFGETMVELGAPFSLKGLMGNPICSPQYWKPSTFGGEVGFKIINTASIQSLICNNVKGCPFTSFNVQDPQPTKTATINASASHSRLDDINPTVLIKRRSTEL
Experimental: Cells were stimulated for 24 h with E. coli lipopolysaccharide (LPS, 10 μg/mL) to induce COX-2, in the absence or presence of test compounds, at the concentrations previously reported. The supernatants were collected for the measurement of PGE2 by radioimmunoassay.
Analysis. Throughout the time the experiments lasted, triplicate wells were used for the various conditions of treatment. Results are expressed as the mean, for 3 experiments, of the % inhibition of PGE2 production by test compounds with respect to control samples. Data fit was obtained using the sigmoidal dose-response equation (variable slope). The IC50 were calculated by GraphPad Instat program (GraphPad software).

[7] = VIGOR trial; cited from earlier work
glaucomatous rabbits = details: not COX-2 dependent effect; cited from earlier work
[8] = 0.5 h, 30 min, read-out: Analgesia 30 min MPE
[9] = 1 h, 60 min, read-out: Analgesia 60 min MPE

| SMILES | inhibition in vivo at 20 mg/kg [1, 8] [%] | inhibition in vivo at 20 mg/kg [1, 9] [%] | inhibition in vivo at 20 mg/kg [2] [%] | melting point [°C] | COX-1/COX-2 Selectivity Index (IC50 ratio) (COX-2) | Number of writhes ([6]; 20 mg/Kg s.c.) | also measured |
| --- | --- | --- | --- | --- | --- | --- | --- |
| Cc1ccc(-c2cc(C(F)(F)F)nn2-c2ccc(S(N)(=O)=O)cc2)cc1 [Celecoxib] | 73 | 81 | 95 | – | – | – | Analgesia 0-2 hrs MPE [3]: 30%; Analgesia 0-6 hrs MPE [3]: 35%; Edema 0-6 hrs MPE [4]: 24.8%; incidence of heart attack in the treated group in comparison to placebo [5]: four times higher; susceptibility of low-density lipoprotein to oxidative modifications (low-density lipoprotein): had no effect |
| Cc1c(CC(=O)OC(C)C)cc(-c2ccc(S(C)(=O)=O)cc2)n1-c1ccccc1 [Example 1, Isopropyl[2-methyl-5-(4-methylsulphonyl)phenyl-1-phenyl-1H-pyrrol-3-yl]acetate] | – | – | – | 160 | – | – | inhibition in vivo at 5 mg/kg [1, 8]: 80%; inhibition in vivo at 5 mg/kg [1, 9]: 60%; inhibition in vivo at 5 mg/kg ([2]; 5 mg/Kg): 100%; Analgesia 0-2 hrs MPE [3]: 75%; Analgesia 0-6 hrs MPE [3]: 70%; Edema 0-2 hrs MPE [4]: 20%; Edema 0-6 hrs MPE [4]: 15%; Number of writhes ([6]; 5 mg/Kg s.c.): 28.5 ± 3.3 |
| CCCCOC(=O)Cc1cc(-c2ccc(S(C)(=O)=O)cc2)n(-c2ccc(F)c(F)c2)c1C [Example 5, n-Butyl[1-(3,4-difluoro)phenyl-2-methyl-5-(4-methylsulphonyl)phenyl-1H-pyrrol-3-yl]acetate] | 76 | 100 | 74 | 112 | >3300 | 13.7 ± 4.0 | – |
| Cc1c(CC(=O)OC(C)C)cc(-c2ccc(S(C)(=O)=O)cc2)n1-c1ccc(F)c(F)c1 [Example 2, Isopropyl[1-(3,4-difluoro)phenyl-2-methyl-5-(4-methylsulphonyl)phenyl-1H-pyrrol-3-yl]acetate] | 100 | 70 | 91 | 143 | >4700 | 21.5 ± 3.9 | – |
| Cc1c(CC(=O)OC(C)C)cc(-c2ccc(S(C)(=O)=O)cc2)n1-c1cccc(F)c1 [Example 4, Isopropyl[1-(3-fluoro)phenyl-2-methyl-5-(4-methylsulphonyl)phenyl-1H-pyrrol-3-yl]acetate] | 84 | 80 | 87 | 100 | >2300 | 17.7 ± 2.9 | – |
| CS(=O)(=O)c1ccc(C2=C(c3ccccc3)C(=O)OC2)cc1 [Rofecoxib] | – | – | – | – | >800 | – | incidence of acute myocardial infarction, Rofecoxib arm compared with the Naproxen arm [7]: five-fold increase; effect on intraocular pressure (glaucomatous rabbits): had no effect; susceptibility of low-density lipoprotein to oxidative modifications (low-density lipoprotein): increases susceptibility |
| Cc1onc(-c2ccccc2)c1-c1ccc(S(N)(=O)=O)cc1 [Valdecoxib] | – | – | – | – | – | – | effect on intraocular pressure (glaucomatous rabbits): reduce intraocular pressure |
| COc1ccc(-n2c(-c3ccc(S(C)(=O)=O)cc3)cc(CC(=O)OC(C)C)c2C)cc1 [Example 3, Isopropyl[1-(4-methoxy)phenyl-2-methyl-5-(4-methylsulphonyl)phenyl-1H-pyrrol-3-yl]acetate] | 67 | 90 | 77 | 138 | >4500 | 18.5 ± 3.5 | – |
